Data taken from patent US20220016215A1, “GIP RECEPTOR AGONIST PEPTIDE COMPOUNDS AND USES THEREOF” (TAKEDA PHAARMACEUTICAL COMPANY LIMITED, priority 2018, published 2022).

Columns and labels:
human GIPR = target: T1, human GIPR (Homo sapiens, UniProt P48546); test: Agonist activity on human GIPR, CRE-luciferase reporter assay (increase in intracellular cAMP as indicator); format: cell-based; conditions: GLP1R EC50 / GIPR EC50
T1 construct: expressed in transfected cells
T1 sequence (P48546 22-466): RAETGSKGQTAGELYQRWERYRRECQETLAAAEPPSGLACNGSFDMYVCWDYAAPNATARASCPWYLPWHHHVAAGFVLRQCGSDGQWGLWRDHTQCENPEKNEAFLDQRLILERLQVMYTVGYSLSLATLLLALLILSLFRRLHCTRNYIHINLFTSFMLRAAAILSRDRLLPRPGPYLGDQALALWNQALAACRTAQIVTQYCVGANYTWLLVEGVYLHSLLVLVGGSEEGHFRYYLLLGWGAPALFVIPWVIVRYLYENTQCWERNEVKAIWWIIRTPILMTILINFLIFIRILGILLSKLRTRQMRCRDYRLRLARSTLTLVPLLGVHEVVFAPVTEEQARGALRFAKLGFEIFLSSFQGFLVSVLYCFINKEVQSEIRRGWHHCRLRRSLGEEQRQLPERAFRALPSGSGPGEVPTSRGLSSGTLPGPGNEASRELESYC
Excerpt: The human GIPR gene having an identical sequence to Genebank Accession No. U39231 is cloned into a pMSRα-neo vector to prepare hGIPR/pMSRα-neo.
(2) Construction of Reporter Plasmid Expressing Cell
Luciferase reporter gene with a cAMP-responsive sequence located upstream is transferred to a CHO-K1 cell to construct a CRE-LUC/CHO-K1 cell.
(4) Transfer of Human GIPR Gene to CRE-LUC/CHO-K1 Cell and Obtaining of Expressing Cell
The plasmid hGIPR/pMSRα-neo obtained in (1) is transferred to the CRE-LUC/CHO-K1 cell obtained in (2) to obtain a transformant. Subsequently, the cell line inducing the luciferase expression, hGIPR/CRE-LUC/CHO-K1 cell, is selected from the obtained transformant by adding GIP.
25 μL each of the hGIPR/CRE-LUC/CHO-K1 cell is inoculated in a 384-well white plate (Corning) in such a way as to provide 5×10^3 cells/well and may be cultured in a HamF12 medium containing 10% fetal bovine serum, 100 U/mL penicillin, and 100 μg/mL streptomycin in a CO2 incubator at 37° C. overnight. 5 μL of a medium containing a test compound is added to the cells and incubated for 4 hours at the indicated concentration in a CO2 incubator at 37° C. Steady-Glo (Promega) is added in amounts of 30 μL and shaken under light shielding. Twenty minutes later, luciferase activity is measured using a plate reader Envision (PerkinElmer). The GIPR agonist activity is calculated with increase in intracellular cAMP concentration as the indicator when the luciferase activity in the presence of 10 nM of GIP was 100% and the luciferase activity in the case of adding DMSO instead of the test compound was 0%.

[1] = system: morphine (0.6 mg/kg, s.c.)-induced emesis in ferrets; test: Morphine-induced acute emetic model in male ferrets; format: in vivo, ferret
Protocol: Example 6—In-Vivo Effect of GIP Receptor Agonist Peptides on Emesis in Morphine Induced Emesis Model in Live Male Ferrets
Effect of subcutaneously administered GIP receptor agonist peptide in morphine-induced acute emetic model.
To evaluate the antiemetic effect, the GIP receptor agonist peptides other than natural human GIP were subcutaneously administered into male ferrets 30 minutes before morphine administration. […]. Up to 60 minutes after morphine administration, the condition of the ferrets was monitored to record the frequencies and time points of abdominal contraction motions, vomiting behaviors, licking with the tongue, and fidgety behavior occurring
Effects of Subcutaneously Administered GIP Receptor Agonist Peptides in Morphine-Induced Acute Emetic Model
30 nmol/kg of Compounds 3 and 5 were dissolved with a vehicle (0.09 w/v % tween 80/10% DMSO/saline), respectively, to prepare test solutions. […] of the test solutions and the vehicle were subcutaneously administered to ferrets (4 in each group), respectively. At the time of each of 4 hours, after administration, 0.6 mg/kg of morphine was subcutaneously administered. […] See results in Tables 6, 7 and 8.
(§1) 10 nmol/kg of each compound dissolved with a vehicle (0.09 w/v % tween 80/10% DMSO/saline) respectively, to prepare test solutions. […] of the test solutions and the vehicle were subcutaneously administered to ferrets (4 in each group), respectively. At the time of each of 4 hours, or 120 hours after administration, 0.6 mg/kg of morphine was subcutaneously administered. Up to 360 minutes after morphine administration, the condition of the ferrets was monitored to record the frequencies and time points of abdominal contraction motions, vomiting behaviors, licking with the tongue, and fidgety behavior occurring.
as §1, with “30 nmol/kg” for “10 nmol/kg”, “80/10% DMSO/saline),respectively,” for “80/10% DMSO/saline) respectively,”

[2] = system: Y2R agonist-induced emesis in dogs; format: in vivo, dog; conditions: 30 nmol/kg s.c.
Protocol: Example 8 PYY-1119-Induced Vomiting in Dogs
Emetic episodes were counted for 2 hours after administration (by blinded analysis).
Emetic episodes were counted for 2 hours after Y2R agonist administration (by blinded analysis).

[3] = male ferrets, 30 nmol/kg s.c., morphine 0.6 mg/kg s.c. 4 hours after administration
[4] = female beagle dogs, Y2R agonist 10 μg/kg s.c. at 8 hours postdose
[5] = female beagle dogs, Y2R agonist 10 μg/kg s.c. at 8 hours postdose, counted for 2 hours

Compound | Selectivity Ratio (B/A) (human GIPR) | Ferrets in which the vomiting symptom was observed (in words) ([1]; ferrets, morphine administered 4 hours after administration) | Duration of emesis [1, 3] | Emetic episodes [1, 3] | Latency period [1, 3] | No. of animals that did not vomit [1, 3] | Emetic episodes, % Inhibition of mean value ([1]; male ferrets, 30 nmol/kg s.c., morphine 0.6 mg/kg s.c. 4 hours after administration, vs vehicle) | Comment: Anti-Emetic Activity (inhibition) on morphine-induced emesis ([1]; male ferrets, summary of the morphine experiments) | Anti-emetic effects in animal models of emesis (dogs) (in words) ([2]; dogs, Tables 16 and 17) | Duration of emesis [2, 4] | Latency period of emesis [2, 4] | No. of animals that did not vomit [2, 5] | No. of emetic episodes [2, 5] | No. of emetic episodes, % Inhibition ([2]; female beagle dogs, Y2R agonist at 8 hours postdose, decreased ratio of mean emetic episodes vs vehicle group)
CCCCCCCCCCCCCCCC(=O)NCCCC[C@H](NC(=O)[C@H](CC(=O)O)NC(=O)[C@H](CCSC)NC(=O)[C@H](C)NC(=O)[C@@H](NC(=O)[C@H](CO)NC(=O)[C@H](Cc1ccc(O)cc1)NC(=O)[C@H](CC(=O)O)NC(=O)[C@H](CO)NC(=O)[C@@H](NC(=O)[C@H](Cc1ccccc1)NC(=O)[C@@H](NC(=O)CNC(=O)[C@H](CCC(=O)O)NC(=O)[C@H](C)NC(=O)[C@@H](N)Cc1ccc(O)cc1)[C@@H](C)O)[C@@H](C)CC)[C@@H](C)CC)C(=O)N[C@H](C(=O)N[C@@H](Cc1c[nH]cn1)C(=O)N[C@@H](CCC(N)=O)C(=O)N[C@@H](CCC(N)=O)C(=O)N[C@@H](CC(=O)O)C(=O)N[C@@H](Cc1ccccc1)C(=O)N[C@H](C(=O)N[C@@H](CC(N)=O)C(=O)N[C@@H](Cc1c[nH]c2ccccc12)C(=O)N[C@@H](CC(C)C)C(=O)N[C@@H](CC(C)C)C(=O)N[C@@H](C)C(=O)N[C@@H](CCC(N)=O)C(=O)N[C@@H](CCCCN)C(=O)NCC(=O)N[C@@H](CCCCN)C(=O)N[C@@H](CCCCN)C(=O)N[C@@H](CC(N)=O)C(=O)N[C@@H](CC(=O)O)C(=O)N[C@@H](Cc1c[nH]c2ccccc12)C(=O)N[C@@H](CCCCN)C(=O)N[C@@H](Cc1c[nH]cn1)C(=O)N[C@@H](CC(N)=O)C(=O)N[C@H](C(=O)N[C@H](C(=O)N[C@@H](CCC(N)=O)C(N)=O)[C@@H](C)CC)[C@@H](C)CC)C(C)C)[C@@H](C)CC [Compound 3] | 447 | all of the 4 ferrets | 5.5 ± 7.1 min | 21.8 ± 19.2 | 7.0 ± 2.9 min | 0 | [−143%] | partial inhibition |  |  |  |  |  | 
YAibEGTFISDYSIALDK(Lys-(ethylene glycol)2-C15 diacid)HQQDFVNWLLAQRG-OH [Compound 26] | >100,000 |  |  |  |  |  |  |  | significant anti-emetic effects | 0.0 ± 0.0 min | 92.3 ± 55.5 min | 3 | 0.3 ± 0.5 | [96.6%]
